Source: the NIST ThermoML archive (doi:10.1016/j.jct.2008.02.020)
Numbers after ± are expanded uncertainties.

Conditions: Liquid, Buoyancy - hydrostatic balance with magnetic suspension - one sinker

CCCCCCCCC [nonane]
Conditions | mass density [kg/m3]
233.15 K, 101.46 kPa | 763.962 ± 0.24
233.15 K, 1176.1 kPa | 764.563 ± 0.24
233.15 K, 2178.2 kPa | 765.126 ± 0.24
233.15 K, 4167 kPa | 766.231 ± 0.24
233.15 K, 5936.5 kPa | 767.203 ± 0.24
233.15 K, 8144.5 kPa | 768.395 ± 0.24
233.15 K, 10066 kPa | 769.42 ± 0.24
233.15 K, 12148 kPa | 770.516 ± 0.25
233.15 K, 14076 kPa | 771.516 ± 0.25
233.15 K, 16087 kPa | 772.548 ± 0.25
233.15 K, 18067 kPa | 773.551 ± 0.25
233.15 K, 19984 kPa | 774.511 ± 0.25
233.15 K, 21990 kPa | 775.502 ± 0.25
233.15 K, 24044 kPa | 776.506 ± 0.25
233.15 K, 25990 kPa | 777.446 ± 0.25
233.15 K, 27927 kPa | 778.373 ± 0.25
233.15 K, 29906 kPa | 779.308 ± 0.25
253.15 K, 101.82 kPa | 748.678 ± 0.24
253.15 K, 1135.3 kPa | 749.335 ± 0.24
253.15 K, 2178.6 kPa | 749.992 ± 0.24
253.15 K, 3967.8 kPa | 751.107 ± 0.24
253.15 K, 6147.5 kPa | 752.446 ± 0.24
253.15 K, 8138 kPa | 753.648 ± 0.24
253.15 K, 10112 kPa | 754.82 ± 0.24
253.15 K, 12111 kPa | 755.991 ± 0.24
253.15 K, 14130 kPa | 757.156 ± 0.24
253.15 K, 16140 kPa | 758.299 ± 0.24
253.15 K, 18106 kPa | 759.398 ± 0.24
253.15 K, 20064 kPa | 760.484 ± 0.24
253.15 K, 22026 kPa | 761.552 ± 0.24
253.15 K, 23955 kPa | 762.59 ± 0.24
253.15 K, 25972 kPa | 763.661 ± 0.24
253.15 K, 27913 kPa | 764.677 ± 0.24
253.15 K, 29967 kPa | 765.739 ± 0.24
273.15 K, 102.52 kPa | 733.389 ± 0.23
273.15 K, 1156.8 kPa | 734.143 ± 0.23
273.15 K, 2138 kPa | 734.842 ± 0.23
273.15 K, 4026 kPa | 736.166 ± 0.23
273.15 K, 6169.4 kPa | 737.644 ± 0.23
273.15 K, 8161.4 kPa | 738.99 ± 0.23
273.15 K, 10122 kPa | 740.29 ± 0.23
273.15 K, 12106 kPa | 741.586 ± 0.23
273.15 K, 14101 kPa | 742.864 ± 0.23
273.15 K, 16067 kPa | 744.108 ± 0.23
273.15 K, 18074 kPa | 745.354 ± 0.23
273.15 K, 20036 kPa | 746.555 ± 0.24
273.15 K, 22000 kPa | 747.737 ± 0.24
273.15 K, 23996 kPa | 748.923 ± 0.24
273.15 K, 25994 kPa | 750.093 ± 0.24
273.15 K, 27982 kPa | 751.238 ± 0.24
273.15 K, 29876 kPa | 752.316 ± 0.24
293.15 K, 101.69 kPa | 717.968 ± 0.22
293.15 K, 1184.3 kPa | 718.847 ± 0.22
293.15 K, 2129.2 kPa | 719.604 ± 0.22
293.15 K, 3960.5 kPa | 721.055 ± 0.23
293.15 K, 6115.4 kPa | 722.729 ± 0.23
293.15 K, 7981.6 kPa | 724.145 ± 0.23
293.15 K, 10015 kPa | 725.663 ± 0.23
293.15 K, 12149 kPa | 727.214 ± 0.23
293.15 K, 13981 kPa | 728.526 ± 0.23
293.15 K, 16170 kPa | 730.062 ± 0.23
293.15 K, 17943 kPa | 731.285 ± 0.23
293.15 K, 20200 kPa | 732.813 ± 0.23
293.15 K, 22156 kPa | 734.115 ± 0.23
293.15 K, 24158 kPa | 735.421 ± 0.23
293.15 K, 26136 kPa | 736.696 ± 0.23
293.15 K, 28126 kPa | 737.958 ± 0.23
293.15 K, 29978 kPa | 739.115 ± 0.23
313.15 K, 98.73 kPa | 702.339 ± 0.22
313.15 K, 1168.7 kPa | 703.323 ± 0.22
313.15 K, 2131.9 kPa | 704.205 ± 0.22
313.15 K, 3967.4 kPa | 705.852 ± 0.22
313.15 K, 6162.3 kPa | 707.777 ± 0.22
313.15 K, 8113.9 kPa | 709.449 ± 0.22
313.15 K, 10024 kPa | 711.038 ± 0.22
313.15 K, 12173 kPa | 712.791 ± 0.22
313.15 K, 14170 kPa | 714.384 ± 0.22
313.15 K, 16194 kPa | 715.964 ± 0.22
313.15 K, 17956 kPa | 717.315 ± 0.22
313.15 K, 20057 kPa | 718.889 ± 0.22
313.15 K, 22191 kPa | 720.459 ± 0.23
313.15 K, 24136 kPa | 721.862 ± 0.23
313.15 K, 26139 kPa | 723.282 ± 0.23
313.15 K, 28073 kPa | 724.629 ± 0.23
313.15 K, 29972 kPa | 725.932 ± 0.23
333.15 K, 102.84 kPa | 686.431 ± 0.21
333.15 K, 1137.5 kPa | 687.521 ± 0.21
333.15 K, 2113.9 kPa | 688.539 ± 0.21
333.15 K, 4162.7 kPa | 690.632 ± 0.21
333.15 K, 6145.3 kPa | 692.599 ± 0.21
333.15 K, 8151.9 kPa | 694.535 ± 0.21
333.15 K, 10024 kPa | 696.296 ± 0.21
333.15 K, 12114 kPa | 698.208 ± 0.22
333.15 K, 14127 kPa | 700.005 ± 0.22
333.15 K, 15989 kPa | 701.627 ± 0.22
333.15 K, 18027 kPa | 703.362 ± 0.22
333.15 K, 19954 kPa | 704.977 ± 0.22
333.15 K, 22112 kPa | 706.723 ± 0.22
333.15 K, 24080 kPa | 708.292 ± 0.22
333.15 K, 26038 kPa | 709.821 ± 0.22
333.15 K, 28054 kPa | 711.366 ± 0.22
333.15 K, 29912 kPa | 712.772 ± 0.22
353.15 K, 97.13 kPa | 671.217 ± 0.2
353.15 K, 2136.7 kPa | 672.617 ± 0.21
353.15 K, 6141.9 kPa | 677.222 ± 0.21
353.15 K, 8110.9 kPa | 679.378 ± 0.21
353.15 K, 10054 kPa | 681.439 ± 0.21
353.15 K, 12124 kPa | 683.57 ± 0.21
353.15 K, 14144 kPa | 685.589 ± 0.21
353.15 K, 15989 kPa | 687.385 ± 0.21
353.15 K, 18011 kPa | 689.305 ± 0.21
353.15 K, 20036 kPa | 691.174 ± 0.21
353.15 K, 21991 kPa | 692.938 ± 0.21
353.15 K, 23965 kPa | 694.678 ± 0.21
353.15 K, 25968 kPa | 696.403 ± 0.21
353.15 K, 27955 kPa | 698.078 ± 0.22
353.15 K, 29939 kPa | 699.718 ± 0.22
373.15 K, 102.37 kPa | 653.427 ± 0.2
373.15 K, 1227.9 kPa | 655.018 ± 0.2
373.15 K, 2148.9 kPa | 656.298 ± 0.2
373.15 K, 4131.5 kPa | 658.968 ± 0.2
373.15 K, 6127 kPa | 661.551 ± 0.2
373.15 K, 8138.8 kPa | 664.058 ± 0.2
373.15 K, 10022 kPa | 666.323 ± 0.2
373.15 K, 12112 kPa | 668.749 ± 0.2
373.15 K, 14119 kPa | 671.003 ± 0.2
373.15 K, 16134 kPa | 673.197 ± 0.21
373.15 K, 18104 kPa | 675.276 ± 0.21
373.15 K, 20078 kPa | 677.302 ± 0.21
373.15 K, 22064 kPa | 679.286 ± 0.21
373.15 K, 23988 kPa | 681.158 ± 0.21
373.15 K, 26124 kPa | 683.184 ± 0.21
373.15 K, 28010 kPa | 684.93 ± 0.21
373.15 K, 29905 kPa | 686.647 ± 0.21
